Experimental data reported in paper PMC9572621, “Fe(III) and Cu(II) Complexes of Chlorogenic Acid: Spectroscopic, Thermal, Anti-/Pro-Oxidant, and Cytotoxic Studies” (Materials, 2022).
Values after ≈ are worked out from the molar mass of the structure shown.

Tests used:
[1] = radical assay not named at the place (ABTS•+/DPPH• scavenging discussed); read-out: EC50 (antioxidant); cited from earlier work
MTS cell viability assay = format: cell-based; settings: human, HaCaT keratinocyte cells, 1000 nM
[2] = cited from earlier work
Candida albicans = system: Candida albicans; parameters: method as in doi:10.15199/62.2017.11.9, PMID 25209896; settings: cited from earlier work
Staphylococcus aureus = system: Staphylococcus aureus; parameters: method as in doi:10.15199/62.2017.11.9, PMID 26528244, PMID 24228999; settings: cited from earlier work
[3] = system: Stenotrophomonas maltophilia; parameters: method as in doi:10.15199/62.2017.11.9, PMID 25209896; settings: cited from earlier work
[4] = parameters: method as in PMID 15246878; settings: read-out: IC50, inhibition of the superoxide-driven reduction of NBT by 50%; flavonoid:metal ion ratio 1:1 for complexes; cited from earlier work
[5] = parameters: method as in PMID 29401704; settings: compound 5 μM; cited from earlier work

## O=C1O[C@H]([C@@H](O)CO)C(O)=C1O [L-ascorbic acid]
[1]
  EC50: 10.3 ± 0.98 µM

## O=C(/C=C/c1ccc(O)c(O)c1)O[C@@H]1C[C@](O)(C(=O)O)C[C@@H](O)[C@H]1O [5-CQA, 5-caffeoylquinic acid]
MTS cell viability assay
  viability at 24 h, 1 µM: 101 ± 4.5%
[2]
  pKa1 (COOH): 3.35
  pKa2: 8.30
  pKa3 (OH in the meta position): 12.06
Candida albicans
  MIC: 80 µg/mL (≈ 226 µM)
Staphylococcus aureus
  MIC: 500 µg/mL (≈ 1410 µM)
[3]
  activity against Stenotrophomonas maltophilia: shows activity

## C[C@@H]1O[C@@H](OC[C@H]2O[C@@H](Oc3c(-c4ccc(O)c(O)c4)oc4cc(O)cc(O)c4c3=O)[C@H](O)[C@@H](O)[C@@H]2O)[C@H](O)[C@H](O)[C@H]1O [rutin]
[4]
  IC50: 9 µM

## O=C(C=Cc1ccc(O)c(O)c1)OC1CC(O)(C(=O)[O-])CC(O)C1O.[Li+] (stereo not shown) [CQA/Li]
[5]
  FRAP activity: 106.92 µM Fe^2+
